IC50 data for 19 compounds are collected here from US12281122B1, “PI3K inhibitors” (Cogent Biosciences, Inc., priority 2023, dated 2025).

The subject of assay [1] is T47D (PI3Kα-H1047R) cell line. Description: HTRF phospho-AKT(S473) cell assay in T47D cells. It counts as cell-based, human. Particulars: Homo sapiens, 2 hours compound incubation. In a few lines:
(§1)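 HTRF read-out of phospho-AKT(S473) in lysates gave IC50 values after 2 h compound exposure at 37° C. Dose series was 12 points at 1:3, topping at 5 μM for T47D and 10 μM for SKBR3. Only SKBR3 received 70 ng/ml PDGF-BB during the last 15 minutes.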

Assay [2] has as its system SKBR3 (PI3Kα-Wild Type) cell line. Description: HTRF phospho-AKT(S473) cell assay in SKBR3 cells. It is filed as cell-based, human. Conditions: Homo sapiens, SK-BR-3, 2 hours compound incubation, PDGF-BB stimulated. A digest of the protocol: as §1
(TR-FRET usually uses a lanthanide donor and a delayed reading to cut background.)

[3] abbreviates: T47D (PI3Kα-H1047R) cells, HTRF phospho-AKT(S473).
The mark [4] stands for this setting: SKBR3 (PI3Kα-Wild Type) cells, HTRF phospho-AKT(S473).
Where [5] appears, read: HTRF phospho-AKT(S473), T47D (PI3Kα-H1047R) cells.
[6] abbreviates: HTRF phospho-AKT(S473), SKBR3 (PI3Kα-Wild Type) cells.
Where [7] appears, read: T47D (PI3Kα-H1047R) cell line, phospho-AKT(S473) HTRF.
[8] abbreviates: SKBR3 (PI3Kα-Wild Type) cell line, phospho-AKT(S473) HTRF.

As a reminder, the IC50 is the concentration that inhibits the measured activity by half. As for `Cc1cc([C@@H](C)Nc2ccc(Cl)nc2C(=O)NS(C)(=O)=O)c2nc(N3CCC[C@H](c4cc[nH]n4)C3)n(C)c(=O)c2c1` (relative stereo) [Compound 213, 3-(((R)-1-(2-((R*)-3-(1H-pyrazol-3-yl)piperidin-1-yl)-3,6-dimethyl-4-oxo-3,4-dihydroquinazolin-8-yl)ethyl)amino)-6-chloro-N-(methylsulfonyl) picolinamide], the 50% inhibitory concentration (IC50) in assay [1] (setting [3]) was less than 0.25 µM; in assay [2] (setting [4]), 1 to 5 µM.

Take `COc1cc([C@H]2[C@@H]3CN(c4nc5c([C@@H](C)Nc6ccc(Cl)nc6C(=O)NS(C)(=O)=O)cc(C)cc5c(=O)n4C)C[C@@H]32)c(F)cn1` [Compound 479, 6-chloro-3-(((R)-1-(2-((1R,5S,6S)-6-(5-fluoro-2-methoxypyridin-4-yl)-3-azabicyclo[3.1.0]hexan-3-yl)-3,6-dimethyl-4-oxo-3,4-dihydroquinazolin-8-yl)ethyl)amino)-N-(methylsulfonyl) picolinamide]: the IC50 in assay [1] (setting [5]) is 0.25 to 0.5 µM; in assay [2] (setting [6]) it was no less than 5 µM.

In the case of `Cc1cc([C@@H](C)Nc2ccc(Cl)nc2C(=O)NS(C)(=O)=O)c2nc(N3Cc4cncnc4C3)n(C)c(=O)c2c1` [Compound 517, (R)-6-chloro-3-((1-(2-(5,7-dihydro-6H-pyrrolo [3,4-d]pyrimidin-6-yl)-3,6-dimethyl-4-oxo-3,4-dihydroquinazolin-8-yl)ethyl)amino)-N-(methylsulfonyl) picolinamide], the IC50 fell in the range of 0.25 to 0.5 µM in assay [1] (setting [5]) and 1 to 5 µM in assay [2] (setting [6]).

Take `Cc1cc([C@@H](C)Nc2ccc(Cl)nc2C(=O)NS(C)(=O)=O)c2nc(N3C[C@@H]4[C@H](C3)[C@H]4c3csc(C)n3)n(C)c(=O)c2c1` [Compound 476, 6-chloro-3-(((R)-1-(3,6-dimethyl-2-((1R,5S,6R)-6-(2-methylthiazol-4-yl)-3-azabicyclo[3.1.0]hexan-3-yl)-4-oxo-3,4-dihydroquinazolin-8-yl)ethyl)amino)-N-(methylsulfonyl) picolinamide]: the IC50 in assay [1] (setting [5]) lay in the range of 0.25 to 0.5 µM; in assay [2] (setting [6]), 1 to 5 µM.

Consider `Cc1cc([C@@H](C)Nc2ccc(Cl)nc2C(=O)NS(C)(=O)=O)c2nc(N3C[C@@H]4[C@H](C3)[C@H]4c3nn(C)cc3F)n(C3CC3)c(=O)c2c1` [Compound 466, 6-chloro-3-(((R)-1-(3-cyclopropyl-2-((1R,5S,6R)-6-(4-fluoro-1-methyl-1H-pyrazol-3-yl)-3-azabicyclo[3.1.0]hexan-3-yl)-6-methyl-4-oxo-3,4-dihydroquinazolin-8-yl)ethyl)amino)-N-(methylsulfonyl) picolinamide], for which the IC50 is 0.25 to 0.5 µM in assay [1] (setting [5]) and no less than 5 µM in assay [2] (setting [6]).

With `Cc1cc([C@@H](C)Nc2ccc(Cl)nc2C(=O)NS(C)(=O)=O)c2nc(N3C[C@@H]4[C@H](C3)[C@H]4n3ccc(C)n3)n(C)c(=O)c2c1` [Compound 416, 6-chloro-3-(((R)-1-(3,6-dimethyl-2-((1R,5S,6S)-6-(3-methyl-1H-pyrazol-1-yl)-3-azabicyclo[3.1.0]hexan-3-yl)-4-oxo-3,4-dihydroquinazolin-8-yl)ethyl)amino)-N-(methylsulfonyl) picolinamide], the IC50 in assay [1] (setting [3]) was less than 0.25 µM; in assay [2] (setting [4]), 1 to 5 µM.

Regarding `Cc1cc([C@@H](C)Nc2ccc(Cl)nc2C(=O)NS(C)(=O)=O)c2nc(-c3ccccc3)n(C)c(=O)c2c1` [Compound 813, (R)-6-chloro-3-((1-(3,6-dimethyl-4-oxo-2-phenyl-3,4-dihydroquinazolin-8-yl)ethyl)amino)-N-(methylsulfonyl) picolinamide], the IC50 in assay [1] (setting [5]) is 0.25 to 0.5 µM; in assay [2] (setting [6]), no less than 5 µM.

As for `Cc1ccc(N2C[C@H]3C[C@@H]2CN3c2nc3c([C@@H](C)Nc4ccc(Cl)nc4C(=O)NS(C)(=O)=O)cc(C)cc3c(=O)n2C)nc1` [Compound 609, 6-chloro-3-(((R)-1-(3,6-dimethyl-2-((1R,4R)-5-(5-methylpyridin-2-yl)-2,5-diazabicyclo [2.2.1]heptan-2-yl)-4-oxo-3,4-dihydroquinazolin-8-yl)ethyl)amino)-N-(methylsulfonyl) picolinamide], the IC50 was 0.5 to 1 µM in assay [1] (setting [5]) and no less than 5 µM in assay [2] (setting [6]).

As to `Cc1cc([C@@H](C)Nc2ccc(Cl)nc2C(=O)NS(C)(=O)=O)c2nc([C@H]3[C@@H]4CNC[C@@H]43)n(C)c(=O)c2c1` [Compound 848, 3-(((R)-1-(2-((1R,5S,6r)-3-azabicyclo[3.1.0]hexan-6-yl)-3,6-dimethyl-4-oxo-3,4-dihydroquinazolin-8-yl)ethyl)amino)-6-chloro-N-(methylsulfonyl) picolinamide], the IC50 in assay [1] (setting [7]) is 1 to 5 µM; in assay [2] (setting [8]), no less than 5 µM.

For the compound `Cc1cc([C@@H](C)Nc2ccc(Cl)nc2C(=O)NS(C)(=O)=O)c2nc(-c3ccc(N4CCN(C)CC4)cc3)n(C)c(=O)c2c1` [Compound 790, (R)-6-chloro-3-((1-(3,6-dimethyl-2-(4-(4-methylpiperazin-1-yl)phenyl)-4-oxo-3,4-dihydroquinazolin-8-yl)ethyl)amino)-N-(methylsulfonyl) picolinamide], the values for the IC50 in assay [1] (setting [5]) and in assay [2] (setting [6]) were less than 0.25 µM and no less than 5 µM, respectively.

Take `Cc1cc([C@@H](C)Nc2ccc(Cl)nc2C(=O)NS(C)(=O)=O)c2nc(-c3ccc(-c4cnn(C)c4)nc3)n(C)c(=O)c2c1` [Compound 241, (R)-6-chloro-3-((1-(3,6-dimethyl-2-(6-(1-methyl-1H-pyrazol-4-yl)pyridin-3-yl)-4-oxo-3,4-dihydroquinazolin-8-yl)ethyl)amino)-N-(methylsulfonyl) picolinamide]: the IC50 is less than 0.25 µM in assay [1] (setting [3]) and 1 to 5 µM in assay [2] (setting [4]).

In the case of `COc1nccnc1C1CCN(c2nc3c([C@@H](C)Nc4ccc(Cl)nc4C(=O)NS(C)(=O)=O)cc(C)cc3c(=O)n2C)CC1` [Compound 563, (R)-6-chloro-3-((1-(2-(4-(3-methoxypyrazin-2-yl)piperidin-1-yl)-3,6-dimethyl-4-oxo-3,4-dihydroquinazolin-8-yl)ethyl)amino)-N-(methylsulfonyl) picolinamide], the IC50 in assay [1] (setting [5]) is 0.25 to 0.5 µM; in assay [2] (setting [6]), no less than 5 µM.

`Cc1cc([C@@H](C)Nc2ccc(Cl)nc2C(=O)NS(C)(=O)=O)c2nc(N3CCC(c4nn(C)c(C)c4F)CC3)n(C)c(=O)c2c1` [Compound 421, (R)-6-chloro-3-((1-(2-(4-(4-fluoro-1,5-dimethyl-1H-pyrazol-3-yl)piperidin-1-yl)-3,6-dimethyl-4-oxo-3,4-dihydroquinazolin-8-yl)ethyl)amino)-N-(methylsulfonyl) picolinamide]: the figures for the IC50 in assay [1] (setting [3]) and in assay [2] (setting [4]) were 0.25 to 0.5 µM and no less than 5 µM, respectively.

As for `Cc1cc([C@@H](C)Nc2ccc(Cl)nc2C(=O)NS(C)(=O)=O)c2nc(N3CCC(c4nc(C)no4)CC3)n(C)c(=O)c2c1` [Compound 595, (R)-6-chloro-3-((1-(3,6-dimethyl-2-(4-(3-methyl-1,2,4-oxadiazol-5-yl)piperidin-1-yl)-4-oxo-3,4-dihydroquinazolin-8-yl)ethyl)amino)-N-(methylsulfonyl) picolinamide], the IC50 is less than 0.25 µM in assay [1] (setting [5]) and 1 to 5 µM in assay [2] (setting [6]).

For the compound `Cc1cc([C@@H](C)Nc2ccc(Cl)nc2C(=O)NS(C)(=O)=O)c2nc(N3[C@@H]4CC[C@H]3C[C@@H](n3ncc5ccccc53)C4)n(C)c(=O)c2c1` [Compound 696, 3-(((R)-1-(2-((1R,3R,5S)-3-(1H-indazol-1-yl)-8-azabicyclo[3.2.1]octan-8-yl)-3,6-dimethyl-4-oxo-3,4-dihydroquinazolin-8-yl)ethyl)amino)-6-chloro-N-(methylsulfonyl) picolinamide], the IC50 was 0.5 to 1 µM in assay [1] (setting [5]) and no less than 5 µM in assay [2] (setting [6]).

For the compound `Cc1cc([C@@H](C)Nc2ccc(Cl)nc2C(=O)NS(C)(=O)=O)c2nc(C#Cc3cnn(C)c3)n(C)c(=O)c2c1` [Compound 845, (R)-6-chloro-3-((1-(3,6-dimethyl-2-((1-methyl-1H-pyrazol-4-yl)ethynyl)-4-oxo-3,4-dihydroquinazolin-8-yl)ethyl)amino)-N-(methylsulfonyl) picolinamide], the figures for the concentration for half-maximal inhibition (IC50) in assay [1] (setting [7]) and in assay [2] (setting [8]) were 0.5 to 1 µM and no less than 5 µM, respectively.

`CC(=O)N1CCN(c2ncc(-c3nc4c([C@@H](C)Nc5ccc(Cl)nc5C(=O)NS(C)(=O)=O)cc(C)cc4c(=O)n3C)cc2F)CC1` [Compound 259, (R)-3-((1-(2-(6-(4-acetylpiperazin-1-yl)-5-fluoropyridin-3-yl)-3,6-dimethyl-4-oxo-3,4-dihydroquinazolin-8-yl)ethyl)amino)-6-chloro-N-(methylsulfonyl) picolinamide]: the IC50 in assay [1] (setting [3]) is less than 0.25 µM; in assay [2] (setting [4]) it was 1 to 5 µM.

`Cc1cc([C@@H](C)Nc2ccc(Cl)nc2C(=O)NS(C)(=O)=O)c2nc(N3CC[C@@H](Oc4cnc(C)cn4)C3)n(C)c(=O)c2c1` [Compound 672, 6-chloro-3-(((R)-1-(3,6-dimethyl-2-((R)-3-((5-methylpyrazin-2-yl)oxy)pyrrolidin-1-yl)-4-oxo-3,4-dihydroquinazolin-8-yl)ethyl)amino)-N-(methylsulfonyl) picolinamide]: the IC50 is less than 0.25 µM in assay [1] (setting [5]) and 1 to 5 µM in assay [2] (setting [6]).

For `Cc1cc([C@@H](C)Nc2ccc(Cl)nc2C(=O)NS(C)(=O)=O)c2nc(N3Cc4cn(-c5ccccc5C)nc4C3)n(C)c(=O)c2c1` [Compound 189, (R)-6-chloro-3-((1-(3,6-dimethyl-4-oxo-2-(2-(o-tolyl)-2,6-dihydropyrrolo[3,4-c]pyrazol-5(4H)-yl)-3,4-dihydroquinazolin-8-yl)ethyl)amino)-N-(methylsulfonyl) picolinamide], the IC50 in assay [1] (setting [3]) was 0.25 to 0.5 µM; in assay [2] (setting [4]) it was no less than 5 µM.
